Measurements from ChEMBL document CHEMBL3507680, “University of Dundee, Gates Library screen for HepG2 cell viability”.

Experiment: Human HepG2 cell viability assay in 384 well format
Assay type: toxicity, cell-based
Set-up: dose 125 nL, time 70.5 hour; concentration not given beside the values
Details: HepG2 cells, read-out: Inhibition

Work on `Cc1cc(CN2C[C@@H]3COC[C@]3(c3nnc(C)o3)C2)no1` yielded a cytotoxicity at 70.5 h of 16.2%.
`Cc1cnc(N2C[C@@H]3[C@@H](C2)OCC(=O)N3CC2CC2)nc1` showed a cytotoxicity at 70.5 h of 14.2%.
`O=C(C1CCCO1)N1CCC2(CC1)CNCCO2` (stereo not drawn) gave a cytotoxicity at 70.5 h of 9.56%.
Compound `CC(C)NC(=O)c1ccc2c(c1)C(c1nc[nH]n1)CN2C` (stereo not drawn) has a cytotoxicity at 70.5 h of -8.61%.
Work on `Cc1cnc(NC2CCc3c(ccc(=O)n3C)C2)nc1` (stereo not drawn) yielded a cytotoxicity at 70.5 h of -4.77%.
Compound `COc1ccc(CN2CCO[C@H]3CN(C(=O)C4CC4)CC[C@H]3C2=O)cc1` has a cytotoxicity at 70.5 h of -12%.
In the case of `CC(C)N1CCN(C)CC1c1nnc2ccc(C(=O)N3CCCC3)cn12` (stereo not drawn), the cytotoxicity at 70.5 h was -11.5%.
For `CC(=O)N1CCC2(CC1)CN(C(=O)c1cccc3[nH]ccc13)C2`, the cytotoxicity at 70.5 h was -11.6%.
`CC(C)NC(=O)c1ccc2c(c1)C(c1nc[nH]n1)CN2S(C)(=O)=O` (stereo not drawn) gave a cytotoxicity at 70.5 h of -14.8%.
Work on `O=C1[C@@H]2CCN(C3CCC3)C[C@@H]2OCCN1Cc1ccncc1` yielded a cytotoxicity at 70.5 h of 20.5%.
Compound `O=C(NC1CCC1)C1CCC2(CN(C(=O)c3ccco3)C2)O1` (stereo not drawn) has a cytotoxicity at 70.5 h of -13.3%.
Compound `CN(C)C(=O)NCc1nnc2n1CCN(Cc1cccs1)C2` has a cytotoxicity at 70.5 h of -2.91%.
In the case of `CN(Cc1ccccn1)C1CCCN(Cc2noc(C3CC3)n2)C1` (stereo not drawn), the cytotoxicity at 70.5 h was -8.62%.
`CCc1ncncc1C(=O)N1CCCN(Cc2ccccc2C)CC1` showed a cytotoxicity at 70.5 h of -8.2%.
Compound `Cc1cc(NC(=O)CN2CCCC2Cn2nc(C)nc2C)n(C)n1` (stereo not drawn) has a cytotoxicity at 70.5 h of -14.8%.
In the case of `CCc1ccc(C(=O)NCCNc2ncccn2)cc1`, the cytotoxicity at 70.5 h was 11.9%.
In the case of `O=C(Cc1ccc2c(c1)CCCC2)NCCNc1cnccn1`, the cytotoxicity at 70.5 h was -11.7%.
`Cc1cccc(N2CCN(C(=O)CCc3c(C)noc3Cl)CC2)c1` gave a cytotoxicity at 70.5 h of -8.69%.
`O=C(CNC(=O)c1ccc2c(c1)CCC2)NCCNc1ncccn1` gave a cytotoxicity at 70.5 h of -14.4%.
Compound `Cc1cnn(C2CN(CC(=O)NCCc3ccsc3)C2)c1` has a cytotoxicity at 70.5 h of -13.7%.
For `CCCOCC(=O)NS(=O)(=O)c1ccc2c(c1)OCCO2`, the cytotoxicity at 70.5 h was -0.678%.
`Cc1cnn(C2CN(CC(=O)NCCc3c[nH]c4ccccc34)C2)c1` showed a cytotoxicity at 70.5 h of -9.92%.
In the case of `O=C(COCC(F)(F)F)NS(=O)(=O)c1ccc2c(c1)OCCCO2`, the cytotoxicity at 70.5 h was -6.81%.
In the case of `CC(C)CC(=O)NS(=O)(=O)c1ccc2c(c1)OCCCO2`, the cytotoxicity at 70.5 h was -8.04%.
In the case of `COc1cc(CCC(=O)NC(C)C(=O)O)ccc1OCC(F)(F)F` (stereo not drawn), the cytotoxicity at 70.5 h was -13%.
In the case of `CC(=O)N1CCC2(CC1)CN(C)C(=O)C[C@H]2C(F)(F)F`, the cytotoxicity at 70.5 h was -7.04%.
In the case of `c1csc(N2[C@H](Cn3cncn3)C[C@@H]3CNCC[C@@H]32)n1`, the cytotoxicity at 70.5 h was 10.2%.
For `Cc1cnc(N2CCC3(CCC(C(=O)NC(C)C)C3)CC2)nc1` (stereo not drawn), the cytotoxicity at 70.5 h was -7.58%.
`COCCN1CCO[C@H]2CCN(C(=O)c3ccnnc3)CC[C@@H]21` gave a cytotoxicity at 70.5 h of -8.98%.
`O=S(=O)(c1ccc(F)cc1)N1CC[C@H]2[C@H]1CCN2c1ncccn1` gave a cytotoxicity at 70.5 h of -2.97%.
For `O=S(=O)(c1cccc(F)c1)N1CC[C@H]2[C@H]1CCN2c1ncccn1`, the cytotoxicity at 70.5 h was 1.7%.
Compound `CN(C)c1cc(NCc2cnc3n2CCN(CC2CC2)CC3)ncn1` has a cytotoxicity at 70.5 h of 2.24%.
In the case of `Cn1ccc(CN2CCC3(CC2)CC(Nc2ccccn2)CO3)n1` (stereo not drawn), the cytotoxicity at 70.5 h was -2.31%.
Work on `COCCN1CCO[C@H]2CN(C(=O)c3cccs3)C[C@H]21` yielded a cytotoxicity at 70.5 h of -7.52%.
In the case of `O=C(CC1CC1)NC[C@]12COC[C@H]1CN(c1ncc(F)cn1)C2`, the cytotoxicity at 70.5 h was -2.2%.
Work on `COc1ccc(CN2CCO[C@H]3CN(C4CCCC4)CC[C@H]3C2=O)cc1` yielded a cytotoxicity at 70.5 h of -1.08%.
With `COc1ccc(CN2CCO[C@H]3CN(C4CCC4)CC[C@H]3C2=O)cc1` the cytotoxicity at 70.5 h was -0.486%.
With `CC(C)CN1CC[C@@H]2[C@H](CC1)N(C(=O)c1ccccc1)CCS2(=O)=O` the cytotoxicity at 70.5 h was -1.5%.
Compound `COCC(=O)NC[C@]12COC[C@H]1CN(c1ncc(F)cn1)C2` has a cytotoxicity at 70.5 h of -7.55%.
For `O=C(CC1CC1)NC[C@]12COC[C@H]1CN(c1ncccn1)C2`, the cytotoxicity at 70.5 h was -8%.
Work on `Fc1cnc(N2CCn3c(CN4CCCC4)nnc3C2)nc1` yielded a cytotoxicity at 70.5 h of -9.62%.
With `CC(=O)N1CCC2(CC1)CC(N1CCOCC1)c1ccc(C)cc12` (stereo not drawn) the cytotoxicity at 70.5 h was -8.04%.
`Cc1cnc(N2CCn3c(CN4CCOCC4)nnc3C2)nc1` gave a cytotoxicity at 70.5 h of 21.1%.
`Cn1cnc(S(=O)(=O)N2C[C@H](OCC3CC3)[C@H]3OCCC[C@H]32)c1` showed a cytotoxicity at 70.5 h of 16.2%.
Compound `Cc1ccc2c(c1)C1(CCN(C(=O)C3CC3)CC1)CC2N1CCOCC1` (stereo not drawn) has a cytotoxicity at 70.5 h of -3.95%.
With `CO[C@@H]1CN(S(=O)(=O)c2cn(C)cn2)[C@@H]2CCCO[C@@H]21` the cytotoxicity at 70.5 h was -4.74%.
`Cn1c2c(ccc1=O)CC(Nc1ncc(F)cn1)CC2` (stereo not drawn) gave a cytotoxicity at 70.5 h of -11.5%.
With `CN(C)[C@@H]1CN(C(=O)c2ccc(C#N)cc2)[C@@H]2CCCO[C@H]12` the cytotoxicity at 70.5 h was 3.23%.
`CS(=O)(=O)N1Cc2nccn2CC(CNC(=O)c2cccnc2)C1` (stereo not drawn) gave a cytotoxicity at 70.5 h of -5.69%.
In the case of `CCN1CCC12CCN(C(=O)c1ccsc1)C2` (stereo not drawn), the cytotoxicity at 70.5 h was -12.4%.
`Fc1cccc(O[C@@H]2C[C@H]3CN(Cc4ccccn4)CCN3C2)c1` showed a cytotoxicity at 70.5 h of 27.5%.
For `COc1ncccc1C(=O)N1C[C@@H]2COC[C@]2(CN(C)C)C1`, the cytotoxicity at 70.5 h was -1.76%.
With `CN1CCN(C(=O)[C@H]2C[C@@H]3CN(c4ncc(F)cn4)C[C@@H]3N2C)CC1` the cytotoxicity at 70.5 h was -8.27%.
